This note sets out measurements from patent US7235584B2, “Non-psychotropic cannabinoids” (Pharmos Corporation, priority 2000, dated 2007).

Test [1] concerns transient MCAo in rats. Briefly: Transient MCAo evaluated by the staircase test. The class given is in vivo, Sprague Dawley rats. Conditions: for staircase contralateral performance, pellet consumption (in words): administered 2 hours after start of MCAo. From the text: The test challenges fine motor, sensory and stereognostic function of the cortex in enabling the forepaw (hand) to identify, grasp and accurately manipulate small objects such as food pellets. Loss of the ability to identify, grasp and manipulate small objects reflects a lesion of the fronto-parietal cortex and is a common and crippling deficit after stroke in humans.
The materials for this procedure are identical to those from Physiological Example 5, except for the different concentrations of PRS-211,095. The procedural differences are as follows: • Male Sprague Dawley rats, 230–270 gr (Harlan, Israel) were used. The following compounds and their respective concentrations were tested:
Dexanabinol and analogs PRS-211,095 and PRS-211,220 in PEG ethanol cosolvent 50 mg/ml. Dexanabinol, the analogs and their vehicle were diluted in Intralipid® 20% (Pharmacia) prior to drug administration.
The procedure is essentially as described in Montoya et al. (Montoya, Campbell-Hope, Pemberton and Dunnet, J. Neurosci. Meth. 36:219–228,1991) Animals were kept under mild food deprivation for 3–5 days, receiving 15-gr. food once a day (between 16:00 and 17:00) and free access to water.
In brief, the staircase box contains two rows of seven stairs in each. Two 45 mg food pellets were placed on each step. Animals were placed in the box for 15 minutes sessions. At the end of the session the number of eaten (grasped) and displaced pellets was counted and recorded. Animals were tested twice a day, 4 hours apart. The first session was performed between 8–9 AM and second between 12–13 PM. The animals were trained until they grasped (ate) at least 8 pellets from each set of stairs for two consecutive sessions. Up to one week after the end of the successful training session the animals underwent transient MCAo.
Transient MCAO was performed in essentially the same manner as described in Physiological example 5 with the following modification at step i:
Two minutes prior to thread removal rats were re-anesthetized and administered IV with Dexanabinol 5 mg/kg, analogs
PRS-211,220 or PRS-211,095 at 0.5, 2.5, 5 or 10 mg/kg or vehicle 5 ml/kg. One additional group was sham-treated.
Animals were allowed to recover from the surgery for five days. The mild food deprivation was re-employed during the days following the ischemic insult. They were tested in the staircase box using the above method for 9–12 days. Animals were weighed twice a week during this period.
At the end of the evaluation period, animals were euthanized with pentobarbitone 100 mg/kg IP. The animals were perfused through the heart with heparinized 4% formaldehyde solution in PBS (pH 7.4). Brains were then removed, and kept in the same solution for at least 24h. Then the brains—from the rostral side of the cortex to the cerebellum—were sunk in 30% sucrose in PBS, cryosectioned (20 μm), dried and stained with thionin for histological evaluation of the brain infarct volume. Eight sections at the levels of: 3.3;+2.8;+1.8; +0.8; −0.4;−1.4; −2.2; and −3.4 from Bregma were measured (Swanson, Rat Brain Atlas, 1992). Sections were captured by a CCD camera (V-tech MP-470) and image analyzed (Scion image 1.62A). Infarct size was determined from the series of the 8 sections by either calculation of the infarct volume (mm3) by summing the series of mean lesion areas of two adjacent sections multiplied by the distance between them or calculation of the mean infarct size as percentage of the contralateral hemisphere size; calculation of the mean of the surviving ipsilateral side as percentage of the contralateral hemisphere size; calculation of the mean ipsilateral side ventricle as percentage of the contralateral hemisphere ventricle.
• a. The infarct size was compared using ANOVA (analysis of variance) followed by Duncan's post hoc test. • b. The staircase task performance was evaluated after collecting the data and compressing it into four blocks of six trials: […]

The test system of test [2] is MPTP-mouse model of Parkinson's disease. Briefly: MPTP model of Parkinson's disease, TH-IR neurons in SNpc. Type of test: in vivo, C57/BL mice. The note with it: seven days after MPTP. As for the experimental part:
MPTP-induced model of Parkinson's Disease (PD) in mice is used to evaluate the value of the novel PRS-211 compounds as therapeutic agents for PD.
The MPTP-mouse model of Parkinson's disease is used to test the efficacy of the compounds to prevent the onset of PD symptoms.
The protocol is based on Liberatore et al. (Liberatore, Jackson-Lewis, Vukosavic, Mandir, Vila , McAuliffe, Dawson, Dawson and Przedborski, Nature Medicine 5:1403–9, 1999).
The treatment groups are as follows: • Vehicle 5 ml/kg IP once just before MPTP administration. • Dexanabinol or analog 10 mg/kg IP once just before MPTP administration. • Dexanabinol or analog 20 mg/kg IP once just before MPTP administration. • Dexanabinol or analog 20 mg/kg IP once just before MPTP administration+additional dose 24 hours later.
Seven days after MPTP administration the mice were euthanized and their brains removed cut and stained using an antiserum to tyrosine hydroxylase (TH-IR), the rate limiting enzyme in monoamainergic neurons. Attention was focused on the Substantia nigra, pars compacta (SNpc), which are comprise of dompaminergic neurons that project to the striatum. It is these neurons that undergo degeneration in Parkinson's Disease. MPTP acts as a specific neurotoxin for these neurons, and the aim was to determine whether MPTP-induced nerve degeneration could be ameliorated by Dexanabinol at 10 (D-10), 20 (D-20) or 30 (D-30) mg/kg, or 2 injections of Dexanabinol at 20mg/kg (D-20×2) relative to vehicle alone (V).
The rescue effect of the various treatments was calculated by comparing the number of the TH-IR cells in each group relative to that in animals treated with MPTP alone, which was arbitrarily assigned a value of zero.

For test [3], the system named is kainic acid binding. Briefly: Kainic acid binding to rat forebrain membranes.
Test [4] deals with AMPA binding. Kind of test: AMPA binding to rat forebrain membranes.
Test [5] concerns PGE2. Kind of test: Inhibition of prostaglandin (PGE2) synthesis in LPS-stimulated macrophage cell cultures. The class given is cell-based. The protocol:
The inhibitory effect of the new derivatives of Dexanabinol on prostaglandin synthesis is evaluated in macrophage cell cultures following LPS exposure to induce the inflammatory response. These assays are an indication of the anti-inflammatory activity of the individual analogs.
The inhibitory effect of Dexanabinol new analogs on prostaglandin synthesis was evaluated in macrophage cell cultures. Macrophages were seeded in a 24 well NUNC plates, and incubated with DMEM medium for 24 hours to allow attachment to plastic. The wells were vacuumed and a different new analog is added for 1 hour. Treatments are done in triplicates. Following, LPS was added for a duration of 3–24 extra hours, to induce the inflammatory response. The supernatants were collected and analyzed for PGE2 by enzyme immunoassay technique Biotrak kit (Amersham Pharmacia Biotech).

Setting [6] is: 5 mg/kg, administered 3 hours following transient MCAo.

With `CCCCCCC(C)(C)c1cc(O)c2c(c1)OC(C)(C)C1CC=C(CSc3ncc[nH]3)CC21` (single isomer, unassigned; (+)) [211,092-000], the “increase in pellet consumption, session 3” value (shortened to “increase”) in test [1] (setting [6]) amounted to 58%; in test [1] (5 mg/kg, administered 6 hours following transient MCAo), 30%.

On to `CCCCCCC(C)(C)c1cc(O)c2c(c1)OC(C)(C)C1CC=C(Cn3ccnc3)CC21.Cl` (single isomer, unassigned; (+)) [211,095-000, (+)-(3S ,4S )-6,6-Dimethyl-(1,1-dimethylheptyl)-1-hydroxy-9-(imidazolomethyl)-6a,7,10,10a-tetrahydro-6H-dibenzo[b,d]pyran], for which the “staircase contralateral performance, pellet consumption (in words)” value is given as “moderately improved pellet consumption” in test [1] (0.5 mg/kg), “moderately improved pellet consumption” in test [1] (2.5 mg/kg), “robust improvement” in test [1] (5 mg/kg) and “robust improvement” in test [1] (10 mg/kg). The “protection of infarct volume (histopathology)” value in test [1] (2.5 mg/kg) is listed as “No protection”. Besides, in test [1] (5 mg/kg), the displaced pellets parameter result is reported as “improved performance”. In test [1] (setting [6]), the “increase” value is on record as 17%.

With `CCCCCCC(C)(C)c1cc(O)c2c(c1)OC(C)(C)[C@H]1CC=C(CO)CC21` (stereo partly drawn) [211,007-000, 1,1 dimethyl heptyl-(3S,4S)-7-hydroxy-Δ^6-tetrahydrocannabinol], the “TH-IR SNpc (rescue effect relative to MPTP alone = 0)” value in test [2] (10 mg/kg IP) is listed as −7.85; in test [2] (20 mg/kg IP), 28.52; in test [2] (30 mg/kg IP) it was 22.73; in test [2] (2 injections at 20 mg/kg) it was 8.5. Also, the “staircase contralateral performance, pellet consumption (in words)” value in test [1] (0.5 mg/kg) is “No improvement”. Besides, the displaced pellets parameter entry in test [1] (5 mg/kg) is given as “improved performance”. In addition, the “inhibition of kainic acid binding” value in test [3] is given as “unable to inhibit”. The “inhibition of AMPA binding” value in test [4] is recorded as “unable to inhibit”.

For orientation: inhibition means the drop in the measured response relative to a control, in per cent. High values mean a strong effect, low ones a weak effect. Turning to `CCCCCCC(C)(C)c1cc(O)c2c(c1)OC(C)(C)[C@H]1CC=C(Cn3cccn3)C[C@H]21` [211,220-000, (+)-(3S,4S)-6,6-Dimethyl-(1,1-dimethylheptyl)-1-hydroxy-9-(pyrazolomethyl)-6a,7,10,10a-tetrahydro-6H-dibenzo[b,d]pyran], the displaced pellets parameter entry in test [1] (0.5 mg/kg) is on record as “improved performance”. Besides, the “increase” value was 27% in test [1] (0.5 mg/kg, administered 3 hours following transient MCAo) and 40% in test [1] (0.5 mg/kg, administered 6 hours following transient MCAo). Besides, in test [5], the inhibition at 10 µM is 59%.
